Laboratory results as given in PubChem BioAssay AID256 (DTP/NCI, 2004).
“And” between values parts separate entries of the source, which are not always exact repeats. Identical values can stand only once. Toxic doses and inconclusive results are not listed. Starred links: 1 amine or outer side, 2 acyl side, 3 side chain; linkers in the order of their positions; H or OH if unused. Positions of bridges follow the written chain, without caps; N, C: chain ends. Non-standard residues stand in square brackets, D forms with d. Residues, ends and D or L forms follow the SMILES beside them. Chains are numbered I, II in the order given. Actinocin(9to1) = Cc1c2oc3c(C)ccc(C(=O)[*:1])c3nc-2c(C(=O)[*:2])c(N)c1=O; aThr = C[C@H](O)[C@H](N)C(=O)O; NMeV = CN[C@H](C(=O)O)C(C)C; Sar = CNCC(=O)O

System: CD2F1 mice, L1210 leukemia ip, survival T/C
Assay: NCI In Vivo Anticancer Drug Screen. Data for tumor model L1210 Leukemia (intraperitoneal) in CD2F1 (CDF1) mice
Conditions: higher = longer survival
How it was run: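 Vehicle-treated tumor-bearing mice served as controls (C) for compound-treated mice (T). Reported figure is T divided by C.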

## CCOC(=O)NCC(Cl)CP(=O)(c1ccccc1)c1ccccc1 (centres undefined)
endpoint: mean survival time, dose: 100.0 mg/kg/injection, schedule: Q01DX001 (ip), vehicle: saline with Tween-80
  T/C: 92 % of control
endpoint: mean survival time, dose: 100.0 mg/kg/injection, schedule: Q01DX009 (ip), vehicle: saline with Tween-80
  T/C: 97 % of control
endpoint: mean survival time, dose: 200.0 mg/kg/injection, schedule: Q01DX001 (ip), vehicle: saline with Tween-80
  T/C: 92 % of control
endpoint: mean survival time, dose: 200.0 mg/kg/injection, schedule: Q01DX009 (ip), vehicle: saline with Tween-80
  T/C: 97 % of control
endpoint: mean survival time, dose: 400.0 mg/kg/injection, schedule: Q01DX001 (ip), vehicle: saline with Tween-80
  T/C: 92 % of control
endpoint: mean survival time, dose: 400.0 mg/kg/injection, schedule: Q01DX009 (ip), vehicle: saline with Tween-80
  T/C: 96 % of control

## Cc1c2oc3c(C)ccc(C(=O)N[C@@H]4C(=O)N[C@H](C(C)C)C(=O)N5CCC[C@H]5C(=O)N(C)CC(=O)N(C)[C@@H](C(C)C)C(=O)O[C@H]4C)c3nc-2c(C(=O)N[C@@H]2C(=O)N[C@H](C(C)C)C(=O)N3CCC[C@H]3C(=O)N(C)CC(=O)N(C)[C@@H](C(C)C)C(=O)O[C@H]2C)c(N)c1=O (I: [aThr][dV]P[Sar][NMeV] / II: [aThr][dV]P[Sar][NMeV]; ester I:1-I:C, II:1-II:C; linker I:N-II:N via Actinocin(9to1))
endpoint: mean survival time, dose: 0.01 mg/kg/injection, schedule: Q04DX003 (ip), vehicle: saline
  T/C: 101 % of control
endpoint: mean survival time, dose: 0.02 mg/kg/injection, schedule: Q04DX003 (ip), vehicle: saline
  T/C: 105 % of control
endpoint: mean survival time, dose: 0.03 mg/kg/injection, schedule: Q04DX003 (ip), vehicle: saline
  T/C: 107 % of control
endpoint: mean survival time, dose: 0.05 mg/kg/injection, schedule: Q04DX003 (ip), vehicle: saline
  T/C: 110 % of control
endpoint: mean survival time, dose: 0.06 mg/kg/injection, schedule: Q01DX009 (ip), vehicle: saline
  T/C: 99 % of control
endpoint: mean survival time, dose: 0.1 mg/kg/injection, schedule: Q01DX007 (ip), vehicle: other
  T/C: 162 % of control
endpoint: mean survival time, dose: 0.1 mg/kg/injection, schedule: Q01DX009 (ip), vehicle: other
  T/C: 120 % of control
endpoint: mean survival time, dose: 0.1 mg/kg/injection, schedule: Q03DX003 (ip), vehicle: other
  T/C: 165 % of control
endpoint: mean survival time, dose: 0.2 mg/kg/injection, schedule: Q01DX009 (ip), vehicle: other
  T/C: 90 % of control
endpoint: mean survival time, dose: 0.2 mg/kg/injection, schedule: Q01DX009 (ip), vehicle: saline
  T/C: 88 % of control
endpoint: mean survival time, dose: 0.2 mg/kg/injection, schedule: Q04DX003 (ip), vehicle: other
  T/C: 164 % of control
endpoint: mean survival time, dose: 0.4 mg/kg/injection, schedule: Q01DX001 (ip), vehicle: saline
  T/C: 114 % of control and 120 % of control
endpoint: mean survival time, dose: 0.4 mg/kg/injection, schedule: Q03DX003 (ip), vehicle: other
  T/C: 86 % of control
endpoint: mean survival time, dose: 0.6 mg/kg/injection, schedule: Q01DX001 (ip), vehicle: saline
  T/C: 122 % of control
endpoint: mean survival time, dose: 6.25 micrograms/kg/injection, schedule: Q01DX009 (ip), vehicle: saline + alcohol
  T/C: 104 % of control
endpoint: mean survival time, dose: 6.3 micrograms/kg/injection, schedule: Q01DX009 (ip), vehicle: water
  T/C: 106 % of control
endpoint: mean survival time, dose: 12.5 micrograms/kg/injection, schedule: Q01DX009 (ip), vehicle: saline + alcohol
  T/C: 107 % of control
endpoint: mean survival time, dose: 12.5 micrograms/kg/injection, schedule: Q01DX009 (ip), vehicle: water
  T/C: 114 % of control and 112 % of control
endpoint: mean survival time, dose: 25.0 micrograms/kg/injection, schedule: Q01DX009 (ip), vehicle: saline + alcohol
  T/C: 117 % of control
endpoint: mean survival time, dose: 25.0 micrograms/kg/injection, schedule: Q01DX009 (ip), vehicle: water
  T/C: 118 % of control and 120 % of control
endpoint: mean survival time, dose: 50.0 micrograms/kg/injection, schedule: Q01DX009 (ip), vehicle: saline + alcohol
  T/C: 109 % of control
endpoint: mean survival time, dose: 100.0 micrograms/kg/injection, schedule: Q01DX009 (ip), vehicle: water
  T/C: 115 % of control
endpoint: median survival time, dose: 0.07 mg/kg/injection, schedule: Q04DX003 (ip), vehicle: saline
  T/C: 122 % of control
endpoint: median survival time, dose: 0.13 mg/kg/injection, schedule: Q01DX001 (ip), vehicle: saline
  T/C: 115 % of control and 117 % of control and 118 % of control
endpoint: median survival time, dose: 0.25 mg/kg/injection, schedule: Q01DX001 (ip), vehicle: saline
  T/C: 118 % of control and 112 % of control
endpoint: median survival time, dose: 0.33 mg/kg/injection, schedule: Q04DX003 (ip), vehicle: saline
  T/C: 89 % of control
endpoint: median survival time, dose: 0.5 mg/kg/injection, schedule: Q01DX001 (ip), vehicle: saline
  T/C: 122 % of control
endpoint: median survival time, dose: 12.5 micrograms/kg/injection, schedule: Q01DX009 (ip), vehicle: saline + alcohol
  T/C: 113 % of control
endpoint: median survival time, dose: 25.0 micrograms/kg/injection, schedule: Q01DX009 (ip), vehicle: saline + alcohol
  T/C: 117 % of control
endpoint: median survival time, dose: 200.0 micrograms/kg/injection, schedule: Q01DX009 (ip), vehicle: saline + alcohol
  T/C: 166 % of control

## C[CH2][Sn]1([CH2]C)[O]C2C(CO)OC(n3ccc4c(N)ncnc43)C2[O]1 (centres undefined)
endpoint: mean survival time, dose: 0.78 mg/kg/injection, schedule: Q01DX005 (ip), vehicle: other
  T/C: 110 % of control
endpoint: mean survival time, dose: 1.56 mg/kg/injection, schedule: Q01DX005 (ip), vehicle: other
  T/C: 104 % of control
endpoint: mean survival time, dose: 3.13 mg/kg/injection, schedule: Q01DX005 (ip), vehicle: other
  T/C: 117 % of control
